Reference: PMC6458995, “MAP4K4 Inhibition Promotes Survival of Human Stem Cell-Derived Cardiomyocytes and Reduces Infarct Size In Vivo” (Cell Stem Cell, 2019)

What was measured:
Assay in all cases: Dundee kinase panel
Type in all cases: biochemical
Settings in all cases: for remaining activity at 1 µM: read-out: residual activity
BRSK1 = molecular target: T1, BRSK1 (Homo sapiens, UniProt Q8TDC3)
T1 construct: lines 1-140) and Reaction Biology
T1 sequence (Q8TDC3 1-778): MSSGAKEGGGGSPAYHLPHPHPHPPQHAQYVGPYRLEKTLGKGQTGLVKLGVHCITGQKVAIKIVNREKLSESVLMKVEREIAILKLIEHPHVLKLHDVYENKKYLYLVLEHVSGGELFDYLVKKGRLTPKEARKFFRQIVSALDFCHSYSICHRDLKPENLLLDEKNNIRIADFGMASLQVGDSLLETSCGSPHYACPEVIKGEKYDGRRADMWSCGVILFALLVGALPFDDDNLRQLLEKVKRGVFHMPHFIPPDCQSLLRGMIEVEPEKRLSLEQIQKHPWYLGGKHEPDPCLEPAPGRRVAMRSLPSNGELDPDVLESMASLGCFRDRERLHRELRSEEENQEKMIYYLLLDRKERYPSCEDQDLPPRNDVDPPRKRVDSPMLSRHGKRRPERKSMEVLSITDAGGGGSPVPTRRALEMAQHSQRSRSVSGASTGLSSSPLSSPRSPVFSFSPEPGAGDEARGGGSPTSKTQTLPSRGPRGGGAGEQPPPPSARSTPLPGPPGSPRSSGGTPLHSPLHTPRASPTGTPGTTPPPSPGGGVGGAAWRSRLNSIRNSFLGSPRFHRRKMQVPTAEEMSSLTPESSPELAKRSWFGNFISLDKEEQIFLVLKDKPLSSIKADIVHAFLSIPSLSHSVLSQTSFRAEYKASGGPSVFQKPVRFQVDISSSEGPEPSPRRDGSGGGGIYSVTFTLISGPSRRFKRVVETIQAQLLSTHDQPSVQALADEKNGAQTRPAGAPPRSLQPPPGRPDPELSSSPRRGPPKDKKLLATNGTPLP
Protocol: (§1) Compounds were screened at 1 μM. For key hits, pIC50 values were then determined by HTRF as above. […] Stability in mouse and human liver microsomes was determined by Cyprotex.

EPH-A2 = molecular target: T2, EPH-A2 (Homo sapiens, UniProt P29317)
T2 construct: lines 1-140) and Reaction Biology
T2 sequence (P29317 24-976): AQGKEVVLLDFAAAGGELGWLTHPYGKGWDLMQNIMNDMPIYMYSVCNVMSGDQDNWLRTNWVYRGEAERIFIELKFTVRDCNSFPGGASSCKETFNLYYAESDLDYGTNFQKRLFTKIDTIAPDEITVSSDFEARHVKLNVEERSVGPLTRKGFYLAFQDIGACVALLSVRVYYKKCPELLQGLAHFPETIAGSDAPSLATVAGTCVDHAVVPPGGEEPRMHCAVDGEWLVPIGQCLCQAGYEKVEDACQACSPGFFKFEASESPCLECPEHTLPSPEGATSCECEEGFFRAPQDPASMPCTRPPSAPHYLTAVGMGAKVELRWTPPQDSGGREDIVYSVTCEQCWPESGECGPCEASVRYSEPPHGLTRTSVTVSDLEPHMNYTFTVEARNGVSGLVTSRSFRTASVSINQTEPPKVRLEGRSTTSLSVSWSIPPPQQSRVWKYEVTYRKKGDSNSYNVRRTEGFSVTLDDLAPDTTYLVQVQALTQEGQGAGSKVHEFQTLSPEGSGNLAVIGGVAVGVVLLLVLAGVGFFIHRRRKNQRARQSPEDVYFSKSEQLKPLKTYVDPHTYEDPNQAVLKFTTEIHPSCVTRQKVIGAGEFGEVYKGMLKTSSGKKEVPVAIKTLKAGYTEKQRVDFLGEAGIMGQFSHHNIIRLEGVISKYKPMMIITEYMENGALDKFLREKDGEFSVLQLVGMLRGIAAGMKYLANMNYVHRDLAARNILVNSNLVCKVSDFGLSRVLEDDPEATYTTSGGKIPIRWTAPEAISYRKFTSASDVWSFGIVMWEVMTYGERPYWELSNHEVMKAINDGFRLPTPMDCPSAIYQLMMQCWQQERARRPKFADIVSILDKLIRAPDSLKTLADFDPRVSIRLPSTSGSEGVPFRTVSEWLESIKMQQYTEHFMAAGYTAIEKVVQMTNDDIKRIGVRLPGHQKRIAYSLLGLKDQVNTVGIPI
Protocol: as §1

EPH-B3 = molecular target: T3, EPH-B3 (Homo sapiens, UniProt P54753)
T3 construct: lines 1-140) and Reaction Biology
T3 sequence (P54753 34-998): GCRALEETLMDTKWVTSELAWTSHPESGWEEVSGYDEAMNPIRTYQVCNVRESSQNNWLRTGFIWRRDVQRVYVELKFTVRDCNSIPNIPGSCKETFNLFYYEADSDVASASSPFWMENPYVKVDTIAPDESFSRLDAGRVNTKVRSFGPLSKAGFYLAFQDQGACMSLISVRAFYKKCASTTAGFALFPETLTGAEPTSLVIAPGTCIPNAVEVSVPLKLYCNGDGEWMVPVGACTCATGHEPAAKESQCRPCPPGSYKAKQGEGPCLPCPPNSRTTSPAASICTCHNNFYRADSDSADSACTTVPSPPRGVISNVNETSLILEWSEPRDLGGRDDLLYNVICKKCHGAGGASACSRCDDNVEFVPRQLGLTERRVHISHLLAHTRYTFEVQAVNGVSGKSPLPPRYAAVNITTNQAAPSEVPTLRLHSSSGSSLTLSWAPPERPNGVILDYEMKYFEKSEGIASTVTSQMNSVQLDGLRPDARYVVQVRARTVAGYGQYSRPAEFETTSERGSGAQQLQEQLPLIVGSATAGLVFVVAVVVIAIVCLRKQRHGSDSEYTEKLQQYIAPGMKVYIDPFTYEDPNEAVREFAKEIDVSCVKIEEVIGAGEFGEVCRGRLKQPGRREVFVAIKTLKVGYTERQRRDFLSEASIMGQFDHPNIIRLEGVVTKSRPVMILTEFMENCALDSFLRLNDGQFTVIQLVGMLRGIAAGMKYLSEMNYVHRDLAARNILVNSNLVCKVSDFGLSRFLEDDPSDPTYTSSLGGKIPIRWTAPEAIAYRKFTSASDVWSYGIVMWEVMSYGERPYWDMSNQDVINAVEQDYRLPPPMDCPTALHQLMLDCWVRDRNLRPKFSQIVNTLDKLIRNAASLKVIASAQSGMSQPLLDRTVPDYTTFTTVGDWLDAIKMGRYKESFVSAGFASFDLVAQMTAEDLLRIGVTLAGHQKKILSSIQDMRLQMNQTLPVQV
Protocol: as §1

GCK = molecular target: T4, GCK (Homo sapiens, UniProt Q12851)
T4 construct: lines 1-140) and Reaction Biology
T4 sequence (Q12851 1-820): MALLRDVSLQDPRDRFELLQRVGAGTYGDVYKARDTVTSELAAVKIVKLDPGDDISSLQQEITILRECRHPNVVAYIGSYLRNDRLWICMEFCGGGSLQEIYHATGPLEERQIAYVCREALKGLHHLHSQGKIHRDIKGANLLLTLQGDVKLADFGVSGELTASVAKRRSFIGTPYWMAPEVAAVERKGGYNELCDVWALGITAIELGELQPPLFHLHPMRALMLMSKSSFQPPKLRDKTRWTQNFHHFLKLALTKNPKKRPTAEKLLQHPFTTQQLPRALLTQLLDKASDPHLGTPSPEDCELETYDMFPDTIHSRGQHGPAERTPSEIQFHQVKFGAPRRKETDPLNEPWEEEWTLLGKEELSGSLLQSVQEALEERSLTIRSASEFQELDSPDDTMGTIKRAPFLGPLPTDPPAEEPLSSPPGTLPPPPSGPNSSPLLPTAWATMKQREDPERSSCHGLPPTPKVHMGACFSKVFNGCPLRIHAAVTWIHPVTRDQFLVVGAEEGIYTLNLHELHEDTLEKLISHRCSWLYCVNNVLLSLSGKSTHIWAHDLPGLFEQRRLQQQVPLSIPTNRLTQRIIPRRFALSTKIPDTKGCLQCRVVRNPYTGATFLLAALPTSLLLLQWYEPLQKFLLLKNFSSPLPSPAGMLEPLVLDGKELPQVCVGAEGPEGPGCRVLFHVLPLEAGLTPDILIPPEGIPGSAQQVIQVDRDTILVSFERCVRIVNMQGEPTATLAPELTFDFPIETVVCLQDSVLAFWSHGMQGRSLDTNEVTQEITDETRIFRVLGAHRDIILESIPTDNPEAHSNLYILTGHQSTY
Protocol: as §1

WNK1 = molecular target: T5, WNK1 (Homo sapiens, UniProt Q9H4A3)
T5 construct: lines 1-140) and Reaction Biology
T5 sequence (Q9H4A3 whole entry): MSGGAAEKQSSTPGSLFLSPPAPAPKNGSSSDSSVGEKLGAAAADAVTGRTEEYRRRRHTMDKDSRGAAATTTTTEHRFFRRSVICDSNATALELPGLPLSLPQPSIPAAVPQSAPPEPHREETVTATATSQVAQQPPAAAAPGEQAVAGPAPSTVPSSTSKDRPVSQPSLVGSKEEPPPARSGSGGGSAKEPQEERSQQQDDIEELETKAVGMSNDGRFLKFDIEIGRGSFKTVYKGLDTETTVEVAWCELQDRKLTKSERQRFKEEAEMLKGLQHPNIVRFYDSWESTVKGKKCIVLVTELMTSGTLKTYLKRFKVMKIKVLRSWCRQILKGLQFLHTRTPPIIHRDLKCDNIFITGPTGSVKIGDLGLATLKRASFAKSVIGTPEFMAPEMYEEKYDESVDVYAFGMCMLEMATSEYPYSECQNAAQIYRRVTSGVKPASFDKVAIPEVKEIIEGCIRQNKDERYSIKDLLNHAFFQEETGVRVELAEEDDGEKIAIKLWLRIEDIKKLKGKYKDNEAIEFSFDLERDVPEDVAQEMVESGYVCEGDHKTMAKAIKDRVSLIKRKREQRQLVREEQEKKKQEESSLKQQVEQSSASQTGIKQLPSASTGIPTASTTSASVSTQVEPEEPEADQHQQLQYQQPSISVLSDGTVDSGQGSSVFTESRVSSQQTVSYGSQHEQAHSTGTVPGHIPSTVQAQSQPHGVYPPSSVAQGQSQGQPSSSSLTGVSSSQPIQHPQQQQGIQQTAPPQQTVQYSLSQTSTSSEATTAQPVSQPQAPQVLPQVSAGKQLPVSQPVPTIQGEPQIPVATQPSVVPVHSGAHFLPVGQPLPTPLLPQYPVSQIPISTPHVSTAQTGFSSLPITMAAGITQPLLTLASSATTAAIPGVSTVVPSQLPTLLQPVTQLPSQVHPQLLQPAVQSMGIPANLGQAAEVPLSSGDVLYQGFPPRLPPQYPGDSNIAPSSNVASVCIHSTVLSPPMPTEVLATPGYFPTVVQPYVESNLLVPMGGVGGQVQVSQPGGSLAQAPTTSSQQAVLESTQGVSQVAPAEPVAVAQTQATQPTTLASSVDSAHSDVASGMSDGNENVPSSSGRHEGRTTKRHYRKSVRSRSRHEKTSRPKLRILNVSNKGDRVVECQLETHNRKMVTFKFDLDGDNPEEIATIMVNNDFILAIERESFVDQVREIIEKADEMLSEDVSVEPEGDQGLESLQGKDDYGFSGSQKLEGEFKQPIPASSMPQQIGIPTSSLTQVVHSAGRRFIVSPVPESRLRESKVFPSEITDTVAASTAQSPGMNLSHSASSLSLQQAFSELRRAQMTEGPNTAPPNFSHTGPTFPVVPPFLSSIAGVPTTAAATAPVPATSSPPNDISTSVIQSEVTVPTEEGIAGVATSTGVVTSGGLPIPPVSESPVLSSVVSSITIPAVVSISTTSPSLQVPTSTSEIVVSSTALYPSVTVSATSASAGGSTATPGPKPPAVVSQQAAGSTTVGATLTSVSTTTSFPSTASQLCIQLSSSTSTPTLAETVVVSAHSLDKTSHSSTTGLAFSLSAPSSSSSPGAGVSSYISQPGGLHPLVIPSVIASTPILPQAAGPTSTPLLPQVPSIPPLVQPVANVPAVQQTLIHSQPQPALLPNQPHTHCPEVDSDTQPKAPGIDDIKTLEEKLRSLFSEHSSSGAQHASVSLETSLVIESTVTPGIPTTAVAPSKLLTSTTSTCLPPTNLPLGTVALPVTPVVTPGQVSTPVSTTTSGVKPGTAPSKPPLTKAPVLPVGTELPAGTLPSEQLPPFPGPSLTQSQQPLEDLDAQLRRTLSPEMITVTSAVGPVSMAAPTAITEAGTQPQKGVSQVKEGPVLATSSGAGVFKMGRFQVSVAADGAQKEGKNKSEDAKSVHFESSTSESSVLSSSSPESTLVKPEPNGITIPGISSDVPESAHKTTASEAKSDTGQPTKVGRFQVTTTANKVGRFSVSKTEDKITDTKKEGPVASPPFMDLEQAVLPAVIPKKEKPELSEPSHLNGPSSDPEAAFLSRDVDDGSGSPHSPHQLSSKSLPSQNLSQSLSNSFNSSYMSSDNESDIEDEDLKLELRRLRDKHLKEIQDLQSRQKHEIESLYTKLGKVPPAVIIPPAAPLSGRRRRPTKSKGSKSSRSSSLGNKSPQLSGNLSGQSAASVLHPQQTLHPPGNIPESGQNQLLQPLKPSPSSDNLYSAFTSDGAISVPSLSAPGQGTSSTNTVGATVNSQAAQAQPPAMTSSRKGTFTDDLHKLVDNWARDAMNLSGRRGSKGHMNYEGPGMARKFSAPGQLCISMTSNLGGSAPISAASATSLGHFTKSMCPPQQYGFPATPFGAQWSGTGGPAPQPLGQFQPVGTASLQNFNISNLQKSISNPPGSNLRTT
Protocol: as §1

Compound	remaining activity at 1 µM (BRSK1) [%]	remaining activity at 1 µM (EPH-A2) [%]	remaining activity at 1 µM (EPH-B3) [%]	remaining activity at 1 µM (GCK) [%]	remaining activity at 1 µM (WNK1) [%]	residual activity (BRSK1; 1 μM) [%]	residual activity (EPH-A2; 1 μM) [%]	residual activity (EPH-B3; 1 μM) [%]	residual activity (GCK; 1 μM) [%]	residual activity (WNK1; 1 μM) [%]
COCCOc1ccc(-c2cn(-c3ccccc3)c3nc[nH]c(=O)c23)cc1 [DMX-5804, 5-[4-(2-methoxy-ethoxy)-phenyl]-7-phenyl-3,7-dihydro-pyrrolo[2,3-d]pyrimidin-4-one]	97	94	96	36	106	–	–	–	–	–
Oc1ncnc2c1c(-c1ccccc1)cn2-c1ccccc1 [F1386-0303, 5,7-diphenyl-7H-pyrrolo[2,3-d]pyrimidin-4-ol]	84	97	104	39	109	–	–	–	–	–
Nc1ncc(C(=O)NC2CN(C(=O)C3CC3)C2)c2ccc(-c3cccc(F)c3)nc12 [GNE-495]	–	–	–	–	–	71	112	87	18	102
O=C1Nc2ccc(I)cc2/C1=C/c1cc(Br)c(O)c(Br)c1 [GW5074]	68	63	94	60	94	–	–	–	–	–
O=C1Cc2c([nH]c3ccc(Br)cc23)-c2ccccc2N1 [Kenpaullone]	55	103	–	95	92	–	–	–	–	–
